Measurements published in the NIST ThermoML archive (doi:10.1016/j.jct.2009.10.003).
Numbers after ± are expanded uncertainties.

What was measured:
[1] = molar heat capacity at constant pressure; settings: 298.15 K; 101.33 kPa; Liquid; Small sample (50 mg) DSC
[2] = Crystal; DTA
[3] = Molar enthalpy of transition or fusion; settings: Crystal; DSC

Row | SMILES | molar heat capacity at constant pressure [1] [J/K/mol] | Normal melting temperature [2] [°C] | Molar enthalpy of transition or fusion [3] [kcal/mol]
1 | NS(=O)(=O)c1ccccc1[N+](=O)[O-] [2-nitrobenzenesulfonamide] | 179.54 ± 8.5 | 189.92 ± 0.39 | 6.77 ± 0.155
2 | NS(=O)(=O)c1cccc([N+](=O)[O-])c1 [3-nitrobenzenesulfonamide] | 199.96 ± 8.5 | 164.00 ± 0.39 | 7.52 ± 0.177
3 | NS(=O)(=O)c1ccc([N+](=O)[O-])cc1 [4-nitrobenzenesulfonamide] | 219.98 ± 13 | 180.46 ± 0.39 | 7.12 ± 0.155
